The source of these data is BindingDB's records for doi:10.1021/acs.jmedchem.8b00685 (University of Glasgow, 2018).

This assay is described as follows: Inhibition of human 20S constitutive proteasome beta-2 using Bz-VGR-AMC as substrate after 60 mins by fluorescence assay.

What is called IC50 is the concentration needed to halve the response being measured. A low value points to greater potency.

Consider `CC(=O)N[C@@H](Cc1ccccc1)C(=O)N[C@@H](CC(C)C)C(=O)N[C@@H](CC(C)C)C(=O)N[C@@H](Cc1ccc(CN)cc1)CS(=O)(=O)F`, for which 119 nM corresponded to half-maximal inhibition (IC50). In other words, the sub-micromolar range. In turn, `CC(C)C[C@H](NC(=O)OCc1ccccc1)C(=O)N[C@@H](CC(C)C)C(=O)N[C@@H](CC(C)C)C(=O)N[C@@H](CCCNC(=N)N)CS(=O)(=O)F` gave a concentration for half-maximal inhibition (IC50) of 200 nM.

Molecule `CC(C)C[C@H](NC(=O)[C@H](CC(C)C)NC(=O)[C@@H](N)Cc1ccccc1)C(=O)N[C@@H](Cc1ccc(N)cc1)CS(=O)(=O)F` displayed an IC50 of 220 nM.

On to `CC(C)C[C@H](NC(=O)[C@H](CC(C)C)NC(=O)[C@H](Cc1ccccc1)NC(=O)OC(C)(C)C)C(=O)N[C@@H](CCCNC(=N)N)CS(=O)(=O)F`, for which the IC50 was found to be 700 nM. Compared with the last molecule, the IC50 is about 3.2-fold higher. The molecule `CC(C)C[C@H](NC(=O)[C@H](Cc1ccccc1)N=[N+]=[N-])C(=O)N[C@@H](CC(C)C)C(=O)N[C@@H](CCCCN)CS(=O)(=O)F` came in with a half-maximal inhibitory concentration (IC50) of 700 nM. That is a sub-micromolar value. The molecule `CC(C)C[C@H](NC(=O)[C@H](CC(C)C)NC(=O)[C@@H](N)Cc1ccccc1)C(=O)N[C@@H](Cc1ccc(CN)cc1)CS(=O)(=O)F` registered a half-maximal inhibitory concentration (IC50) of 140 nM. In the case of `CC(C)C[C@H](NC(=O)[C@H](Cc1ccccc1)N=[N+]=[N-])C(=O)N[C@@H](CC(C)C)C(=O)N[C@@H](CCCNC(=N)N)CS(=O)(=O)F` it was 350 nM; in that of `CC(C)C[C@H](NC(=O)[C@H](CC(C)C)NC(=O)[C@@H](N)Cc1ccccc1)C(=O)N[C@@H](CCCCN)CS(=O)(=O)F`, 470 nM. On to `CC(=O)N[C@@H](Cc1ccccc1)C(=O)N[C@@H](CC(C)C)C(=O)N[C@@H](CC(C)C)C(=O)N[C@@H](CCCCN)CS(=O)(=O)F`, for which the midpoint of inhibition, the IC50, lay at 1500 nM. Compared with the last molecule, the IC50 is about 3.2-fold higher.

In turn, `CC(C)C[C@H](NC(=O)[C@H](CC(C)C)NC(=O)[C@H](Cc1ccccc1)NC(=O)OCc1ccccc1)C(=O)N[C@@H](CCCNC(=N)N)CS(=O)(=O)F` yielded an IC50 of 150 nM. In turn, `CC(C)C[C@H](NC(=O)[C@H](CC(C)C)NC(=O)[C@@H](N)Cc1ccccc1)C(=O)N[C@@H](CCCNC(=N)N)CS(=O)(=O)F` yielded an IC50 of 250 nM. As for `CC(=O)N[C@@H](Cc1ccccc1)C(=O)N[C@@H](CC(C)C)C(=O)N[C@@H](CC(C)C)C(=O)N[C@@H](Cc1ccc(N)cc1)CS(=O)(=O)F`, it took 2100 nM to reach half-maximal inhibition (IC50). This IC50 is about 8.4-fold higher than that of the molecule before. In the case of `CC(=O)N[C@@H](Cc1ccccc1)C(=O)N[C@@H](CC(C)C)C(=O)N[C@@H](CC(C)C)C(=O)N[C@@H](CCCNC(=N)N)CS(=O)(=O)F` it was 980 nM.
